Results taken from patent US11472806B2, “Substituted heterocyclic compounds as allosteric modulators of group II metabotropic glutamate receptors” (Domain Therapeutics, priority 2017, dated 2022).
Counter-ions that a name gives are not always drawn.

Molecular target: T1, human mGluR3 (hmGluR3) (Homo sapiens, UniProt Q14832)
T1 construct: expressed in transfected cells; host or cells: HEK-293 cells, transient co-transfection by electroporation
Assay: Human mGluR3 positive allosteric modulator evaluation using Ca++ functional assay
Format: cell-based
Settings: hmGluR3 transiently over-expressed in HEK-293 cells; cells stimulated by an EC50 glutamate concentration; intracellular Ca2+ (Fluo4AM, FLIPR Tetra)
Experimental: Example 89: Human mGluR3 Positive Allosteric Modulator Evaluation Using Ca++ Functional Assay
Compounds of the present invention were tested successively for their agonist and positive allosteric modulator activities on human mGluR3 (hmGluR3) transiently over-expressed in HEK-293 cells. Compounds exert agonist activity if they are able to activate hmGluR3 by themselves, i.e., in absence of the endogenous agonist glutamate; and they exert positive allosteric modulator activity if they increase the action of the endogenous agonist glutamate.
Cell Culture and Transfection:
HEK-293 cells were maintained in Modified Eagle's Medium supplemented with 10% Foetal Calf Serum, 1% Penicillin/Streptomycin and 1% non-essential amino acids at 37° C./5% CO2. Cells were co-transfected by electroporation with four DNA plasmids encoding hmGluR3, a chimeric G protein allowing redirection of the activation signal toward intracellular calcium pathway, and two glutamate transporters so as to decrease extracellular glutamate levels and avoid receptor desensitization (Brabet I et al., Neuropharmacology 37(8), 1043-51, 1998). After transfection, cells were seeded in 75 cm^2 culture flasks, and cultured for 24 h.
Calcium Assa EC50 determination:
Receptor activity was detected by changes in intracellular calcium measured using the fluorescent Ca^2+ sensitive dye, Fluo4AM (Molecular Probes).
The day of the assay, medium was aspirated and replaced during 3 hrs by freshly prepared buffer B (HBSS 1×, Hepes 20 mM, MgSO4-7H2O 1 mM, Na2CO3 3.3 mM, CaCl2-2H2O 1.3 mM, 0.5% BSA, Probenecid 2.5 mM). Then, cells were loaded at 37° C./5% CO2 for 1.5 hrs with buffer B containing 1 μM Fluo4AM, 0.1 mg/mL Pluronic Acid, 7 μg/mL Glutamate Pyruvate Transaminase and 2 mM sodium pyruvate. Afterwards cells were washed with buffer B. Cells were then detached from the 75 cm^2 culture flasks with Accutase® (5 min incubation at 37° C.), centrifuged (5 min at 840 rpm), resuspended in buffer B and finally seeded at a density of 30,000 cells/well in black-walled clear-bottom 384-well plates. Addition of compounds on cells and intracellular Ca^2+ measurements (excitation 485 nm, emission 525 nm) were performed by the fluorescence microplate reader FLIPR Tetra (Molecular Devices).
Agonist and positive allosteric modulator activities of compounds were consecutively evaluated on the same cells plate. Agonist activity was first tested during 10 min with the addition of compound alone on the cells. Then, the cells were stimulated by an EC50 glutamate concentration and fluorescence was recorded for additional 3 min. EC50 glutamate concentration is the concentration giving 50% of the maximal glutamate response. Agonist and/or positive allosteric modulator activity(ies) were evaluated in comparison to basal signal or signal evoked by EC50 glutamate concentration alone, respectively.
For potency determination, a dose-response test was performed using 20 concentrations of each compound of the invention. Dose-response curves were fitted using the sigmoïdal dose-response (variable slope) analysis in XLfit Scientific Curve Fitting for Excel (IDBS). EC50 of agonist/EC50 of positive allosteric modulator activity(ies) were calculated. Dose-response experiments were all performed in duplicate, two times independently.

T1 sequence (Q14832 23-879): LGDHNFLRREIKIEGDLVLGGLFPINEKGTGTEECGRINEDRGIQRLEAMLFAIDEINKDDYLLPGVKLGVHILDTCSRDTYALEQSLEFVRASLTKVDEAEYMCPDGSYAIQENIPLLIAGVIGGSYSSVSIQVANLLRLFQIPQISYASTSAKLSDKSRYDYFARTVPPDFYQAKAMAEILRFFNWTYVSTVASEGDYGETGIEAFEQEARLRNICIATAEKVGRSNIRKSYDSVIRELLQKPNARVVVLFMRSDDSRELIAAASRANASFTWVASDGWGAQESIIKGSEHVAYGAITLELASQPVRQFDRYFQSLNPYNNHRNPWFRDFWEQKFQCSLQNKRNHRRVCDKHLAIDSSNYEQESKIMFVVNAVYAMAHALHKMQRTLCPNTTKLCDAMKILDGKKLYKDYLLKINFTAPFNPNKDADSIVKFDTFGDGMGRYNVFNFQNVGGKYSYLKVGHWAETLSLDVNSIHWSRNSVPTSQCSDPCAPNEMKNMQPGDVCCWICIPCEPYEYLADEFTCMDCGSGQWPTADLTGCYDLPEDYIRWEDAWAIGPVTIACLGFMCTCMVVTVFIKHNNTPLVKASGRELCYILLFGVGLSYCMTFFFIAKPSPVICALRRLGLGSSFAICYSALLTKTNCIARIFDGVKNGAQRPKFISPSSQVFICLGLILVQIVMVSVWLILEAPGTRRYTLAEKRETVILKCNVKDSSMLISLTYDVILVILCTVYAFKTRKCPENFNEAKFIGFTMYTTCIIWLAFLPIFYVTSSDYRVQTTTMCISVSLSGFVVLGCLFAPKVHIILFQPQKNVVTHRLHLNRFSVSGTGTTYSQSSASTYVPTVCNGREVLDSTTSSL

Compound	EC50
Cc1ncccc1-c1ccc2c(c1)-c1cccnc1C(=O)N(C)C2 [Example 26, 6-Methyl-10-(2-methyl-pyridin-3-yl)-6,7-dihydro-4,6-diaza-dibenzo[a, c]cyclohepten-5-one]	100 to 1000 nM
Cc1ccc2c(n1)C(=O)N(C)Cc1ccc(-c3ccc(F)nc3)cc1-2 [Example 39, 10-(6-Fluoro-pyridin-3-yl)-3,6-dimethyl-6,7-dihydro-4,6-diaza-dibenzo[a, c]cyclohepten-5-one]	100 to 1000 nM
COc1cnc2c(c1)-c1cc(-c3cccnc3C)ccc1CN(C)C2=O [Example 48, 2-Methoxy-6-methyl-10-(2-methyl-pyridin-3-yl)-6,7-dihydro-4,6-diaza-dibenzo[a, c]cyclohepten-5-one]	100 to 1000 nM
Cc1ncccc1-c1ccc2c(c1)-c1cc[nH]c1C(=O)N(C)C2 [Example 59, 5-Methyl-9-(2-methyl-pyridin-3-yl)-5,6-dihydro-3H-3,5-diaza-benzo[e]azulen-4-one]	100 to 1000 nM
Cc1ncccc1-c1ccc2c(c1)-c1ccc(F)nc1C(=O)N(C)C2 [Example 30, 3-Fluoro-6-methyl-10-(2-methyl-pyridin-3-yl)-6,7-dihydro-4,6-diaza-dibenzo[a, c]cyclohepten-5-one]	1000 to 10000 nM
COCn1cc2c(n1)C(=O)N(C)Cc1ccc(-c3ccc(F)nc3)cc1-2 [Example 66, 2-Methoxymethyl-5-methyl-9-(6-fluoro-pyridin-3-yl)-5,6-dihydro-2H-2,3,5-triaza-benzo[e]azulen-4-one]	100 to 1000 nM
CN1Cc2ccc(-c3cccc(C#N)c3)cc2-c2cccnc2C1=O [Example 25, 3-(6-Methyl-5-oxo-6,7-dihydro-5H-4,6-diaza-dibenzo[a,c]cyclohepten-10-yl)-benzonitrile]	100 to 1000 nM
Cc1ncccc1-c1ccc2c(c1)-n1cccc1C(=O)N(C)C21CCC1 [Example 17, 9-(2-Methyl-pyridin-3-yl)-5-methyl-5,6-dihydro-spiro[benzo[f]pyrrolo[, 2-a][1,4]diazepine-6,1′-cyclobutan]-4-one]	100 to 1000 nM
CN1Cc2ncc(-c3ccc4nccn4c3)cc2-n2cccc2C1=O [Example 12, 9-Imidazo[1,2-a]pyridin-6-yl-5-methyl-5,6-dihydro-5,7,10b-triaza-benzo[e]azulen-4-one]	> 10000 nM
CN1Cc2ccc(-c3ccc(F)nc3)cc2-c2ccc(F)nc2C1=O [Example 31, 3-Fluoro-10-(6-fluoro-pyridin-3-yl)-6-methyl-6,7-dihydro-4,6-diaza-dibenzo[a, c]cyclohepten-5-one]	1000 to 10000 nM
Cc1ncccc1-c1ccc2c(c1)-c1c[nH]nc1C(=O)N(C)C2 [Example 57, 5-Methyl-9-(2-methyl-pyridin-3-yl)-5,6-dihydro-2H-2,3,5-triaza-benzo[e]azulen-4-one]	1000 to 10000 nM
COc1ccc2c(n1)C(=O)N(C)Cc1ccc(-c3cccnc3C)cc1-2 [Example 36, 3-Methoxy-6-methyl-10-(2-methyl-pyridin-3-yl)-6,7-dihydro-4,6-diaza-dibenzo[a, c]cyclohepten-5-one]	100 to 1000 nM
Cc1ncccc1-c1ccc2c(c1)-c1cc(F)cnc1C(=O)N(C)C2 [Example 46, 2-Fluoro-6-methyl-10-(2-methyl-pyridin-3-yl)-6,7-dihydro-4,6-diaza-dibenzo[a, c]cyclohepten-5-one]	1000 to 10000 nM
COc1ccc2c(n1)C(=O)N(C)Cc1ccc(-c3ccc(F)cn3)cc1-2 [Example 34, 10-(5-Fluoro-pyridin-2-yl)-3-methoxy-6-methyl-6,7-dihydro-4,6-diaza-dibenzo[a, c]cyclohepten-5-one]	100 to 1000 nM
CN1Cc2ccc(-c3ccc(F)cn3)cc2-c2cccnc2C1=O [Example 28, 10-(5-Fluoro-pyridin-2-yl)-6-methyl-6,7-dihydro-4,6-diaza-dibenzo[a, c]cyclohepten-5-one]	100 to 1000 nM
COCn1cc2c(n1)C(=O)N(C)Cc1ccc(-c3cccnc3C)cc1-2 [Example 65, 2-Methoxymethyl-5-methyl-9-(2-methyl-pyridin-3-yl)-5,6-dihydro-2H-2,3,5-triaza-benzo[e]azulen-4-one]	100 to 1000 nM

Compound	EC50
Cc1ncccc1-c1cnc2c(n1)-n1cccc1C(=O)N(C)C2 [Example 7, 5-Methyl-9-(2-methyl-pyridin-3-yl)-5,6-dihydro-5,7,10,10b-tetraaza-benzo[e]azulen-4-one, dihydrochloride]	1000 to 10000 nM
Cc1ncccc1-c1ccc2c(c1)-c1ccccc1C(=O)N(C)C21CC1 [Example 21, 10-(2-Methyl-pyridin-3-yl)-6-methyl-6,7-dihydro-spiro[dibenzo[c,e]azepine-7,1′-cyclopropan]-5-one, hydrochloride]	100 to 1000 nM
COc1ccc2c(n1)C(=O)N(C)C1(CC1)c1ccc(Cl)cc1-2 [Example 52, 10-chloro-3-methoxy-6-methylspiro[benzo[c]pyrido[3,2-e]azepine-7,1′-cyclopropan]-5(6H)-one]	100 to 1000 nM
Cc1cnc2c(c1)-c1cc(-c3ccc(F)nc3)ccc1CN(C)C2=O [Example 44, 10-(6-Fluoro-pyridin-3-yl)-2,6-dimethyl-6,7-dihydro-4,6-diaza-dibenzo[a, c]cyclohepten-5-one]	100 to 1000 nM
COCCn1cc2c(n1)C(=O)N(C)Cc1ccc(-c3cccnc3C)cc1-2 [Example 72, 2-(2-Methoxy-ethyl)-5-methyl-9-(2-methyl-pyridin-3-yl)-5,6-dihydro-2H-2,3,5-triaza-benzo[e]azulen-4-one]	1000 to 10000 nM
Cc1ncccc1-c1ccc2c(c1)-c1ccc(Cl)cc1C(=O)N(C)C21CC1 [Example 22, 3-Chloro-10-(2-methyl-pyridin-3-yl)-6-methyl-6,7-dihydro-spiro[dibenzo[c, e]azepine-7,1′-cyclopropan]-5-one]	1000 to 10000 nM
Cc1cnc2c(c1)-c1cc(-c3cccnc3C)ccc1CN(C)C2=O [Example 43, 2,6-Dimethyl-10-(2-methyl-pyridin-3-yl)-6,7-dihydro-4,6-diaza-dibenzo[a, c]cyclohepten-5-one]	1000 to 10000 nM
Cc1ncccc1-c1cc2c(cn1)C1(CC1)N(C)C(=O)c1cccn1-2 [Example 3, 2′-(2-Methyl-pyridin-3-yl)-6′-methylspiro[cyclopropane-1,5′-pyrido[3,4-f]pyrrolo[1,2-a][1,4]diazepin]-7′(6 ^1H)-one]	1000 to 10000 nM
Cc1ncccc1-c1cnc2c(c1)-n1cccc1C(=O)N(C)C2 [Example 6, 5-Methyl-9-(2-methyl-pyridin-3-yl)-5,6-dihydro-5,7,10b-triaza-benzo[e]azulen-4-one, dihydrochloride]	> 10000 nM
Cc1ncccc1-c1ccc2c(c1)-c1ccsc1C(=O)N(C)C2 [Example 55, 5-Methyl-9-(2-methyl-pyridin-3-yl)-5,6-dihydro-3-thia-5-aza-benzo[e]azulen-4-one]	100 to 1000 nM
Cc1ncccc1-c1ccc2c(c1)-c1cn(C)nc1C(=O)N(C)C2 [Example 68, 2,5-Dimethyl-9-(2-methyl-pyridin-3-yl)-5,6-dihydro-2H-2,3,5-triaza-benzo[e]azulen-4-one]	1000 to 10000 nM
CN1Cc2ccc(-c3ccc(F)cn3)cc2-c2ccc(F)nc2C1=O [Example 32, 3-Fluoro-10-(5-fluoro-pyridin-2-yl)-6-methyl-6,7-dihydro-4,6-diaza-dibenzo[a, c]cyclohepten-5-one]	1000 to 10000 nM
CN1Cc2ncc(-c3cccc(C#N)c3)cc2-n2cccc2C1=O [Example 11, 3-(5-Methyl-4-oxo-5,6-dihydro-4H-5,7,1 b-triaza-benzo[e]azulen-9-yl)-benzonitrile]	> 10000 nM
Cc1ccc2c(n1)C(=O)N(C)Cc1ccc(-c3ccc(F)cn3)cc1-2 [Example 40, 10-(5-Fluoro-pyridin-2-yl)-3,6-dimethyl-6,7-dihydro-4,6-diaza-dibenzo[a, c]cyclohepten-5-one]	100 to 1000 nM
CN1Cc2ccc(-c3ccc(F)nc3)cc2-c2cccnc2C1=O [Example 27, 10-(6-Fluoro-pyridin-3-yl)-6-methyl-6,7-dihydro-4,6-diaza-dibenzo[a, c]cyclohepten-5-one]	100 to 1000 nM
